The nature of series [1]: Blood sampling with in vitro assay of ^153 Gd-labeled ProHance® and ^99m Tc(DTPA), elimination from rat blood pool (validation experiment). It counts as in vivo. Particulars: rats #5 to #7; blood samples; simultaneous intravenous injection; same values obtained for ^153 Gd and ^99m Tc. The method, then: (§1) Runs involving simultaneous intravenous injection administrations of 0.5 mmol/kg ProHance®, ^153 Gd-labeled ProHance® and ^99m Tc(DTPA) (Techneplex™, technetium-diethylenetriamine pentaacetic acid), the latter to determine glomerular filtration rate by in vitro methods as a validation experiment, were also carried out. In these runs, rat blood samples and tail T1 data were acquired at the same time intervals from the same rat, and with multiple subjects (n=3). The blood samples were assayed in vitro to determine the amounts of ^153 Gd-labeled ProHance® and ^99m Tc(DTPA) in the blood, and the percentage changes in the blood pool concentrations of ^153 Gd-labeled ProHance® and ^99m Tc(DTPA) were plotted as a function of time to obtain the T1/2 values. The T1/2 data were also calculated from the slopes of the log(1/T1 -1/T10) versus time plots. These two sets of rat T1/2 data are shown in Table 1, and are also compared in FIG. 2.

A short description of series [2]: In vivo proton T1 measurement at rat tail, elimination of ProHance® (kidney status). The conditions noted are these: intravenous 0.5 mmol/kg ProHance®, 20 MHz, 0.5 Tesla, 40° C. The method, then:
The measurement site was the tail of the subject rat, which was hung into the sample tube of a Brucker/IBM PC 20 Spin Analyzer (commerically available).
Rat proton T1 data were recorded both before and after intravenous injection of 0.5 mmol/kg ProHance®. The T1 measurements were made by the inversion-recovery method (Fukushima et al., Experimental Pulse NMR, a Nuts and Bolts Approach (Addison-Wesley 1981)) at 20 MHz and 0.5 Tesla at 40° C. with the IBM PC 20 relaxometer by sampling the section of the rat tail about 10 mm from the tip. The proton T1 change upon the injection of ProHance® was followed for 2 hours at 5 minute intervals after injection. The logarithms of the differences in the T1 relaxation rate (reciprocal of T1 relaxation time) before and after injection, log(1/T1 -1/T10), were plotted as a function of time. The elimination halftimes (T1/2) were calculated from the slopes of the log plots. The proton T1 data of a nephrectomized rat were also collected and used for comparison with the behaviour of normal rats (see FIG. 1).
as §1

[3] abbreviates: normal rats #1 to #7, one value per rat, 2 hours at 5 minute intervals.

Values joined by “and” are separate entries in the source; they are usually repeats but may differ in a detail not shown here. Equal entries are not always repeated.

With “technetium-diethylenetriamine pentaacetic acid [^99m Tc(DTPA)]”, the “Elimination Halftime T1/2 From ^153 Gd and ^99m Tc” value in series [1] was 31 min.
Still for that read-out and setting: next, `CC(O)CN1CCN(CC(=O)[O-])CCN(CC(=O)[O-])CCN(CC(=O)[O-])CC1.[Gd+3]` (stereo not drawn) [^153 Gd-labeled ProHance®]: 31 min.
Turning to `CC(O)CN1CCN(CC(=O)[O-])CCN(CC(=O)[O-])CCN(CC(=O)[O-])CC1.[Gd+3]` (stereo not drawn) [ProHance®, Gd-hydroxypropyl tetraazacylododecanetriacetic acid], in series [2] (nephrectomized rat), the “Elimination Halftime T1/2 From Slope” value is 2,000 ± 4,000 min and the “Slope of Log (1/T1 - 1/T10) vs Time Plot” value worked out at 0.0003 ± 0.0006. Further, in series [2] (setting [3]), the “Elimination Halftime T1/2 From Slope” value was 35 ± 5 min and 32 ± 2 min and 25 ± 4 min and 30 ± 3 min and 36 ± 2 min and 20 ± 2 min; the “Slope of Log (1/T1 - 1/T10) vs Time Plot” value was 0.0093 ± 0.0006 and 0.012 ± 0.0020 and 0.010 ± 0.0012 and 0.0083 ± 0.0005 and 0.015 ± 0.0016 and 0.0087 ± 0.0012.

These data come from US5603917A, “Methods for the in vivo measurement of the concentration of NMR-detectable xenobiotic compounds” (Bracco International B. V., priority 1994, dated 1997).
